Publication doi:10.1101/2023.04.05.535794v1 (biorxiv, 2023)

Key:
Test in all cases: fluorogenic peptide-amc hydrolysis, dose-response over […] h
Format in all cases: biochemical
[1] = biological target: T1, Tv20S β5 (T. vaginalis 20S proteasome, β5 site) (Trichomonas vaginalis, UniProt A2DD57)
T1 sequence (A2DD57 54-256): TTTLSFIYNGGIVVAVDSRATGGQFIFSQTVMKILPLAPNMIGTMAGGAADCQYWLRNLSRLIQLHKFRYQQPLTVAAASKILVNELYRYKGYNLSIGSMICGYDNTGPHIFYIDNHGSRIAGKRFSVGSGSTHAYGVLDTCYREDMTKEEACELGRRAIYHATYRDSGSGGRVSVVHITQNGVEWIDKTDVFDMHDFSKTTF

[2] = biological target: T2, Tv20S β1 (T. vaginalis 20S proteasome, β1 site) (Trichomonas vaginalis, UniProt A2E7Z2)
T2 sequence (A2E7Z2 13-216): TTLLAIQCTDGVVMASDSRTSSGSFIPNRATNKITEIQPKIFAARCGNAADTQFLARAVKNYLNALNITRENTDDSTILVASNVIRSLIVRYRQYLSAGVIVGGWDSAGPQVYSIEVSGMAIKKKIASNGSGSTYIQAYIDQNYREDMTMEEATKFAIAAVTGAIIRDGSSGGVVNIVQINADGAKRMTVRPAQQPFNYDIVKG

[3] = biological target: T3, Tv20S β2 (T. vaginalis 20S proteasome, β2 site) (Trichomonas vaginalis, UniProt A2F2T6)
T3 sequence (A2F2T6 32-275): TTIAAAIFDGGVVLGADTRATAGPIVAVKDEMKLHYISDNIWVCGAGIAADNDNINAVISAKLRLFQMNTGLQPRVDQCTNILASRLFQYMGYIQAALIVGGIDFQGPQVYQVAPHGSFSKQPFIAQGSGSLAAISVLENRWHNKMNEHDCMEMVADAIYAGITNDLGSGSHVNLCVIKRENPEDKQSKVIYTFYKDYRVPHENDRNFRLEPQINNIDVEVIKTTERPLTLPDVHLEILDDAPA

| IC50 [1] | IC50 [2] | IC50 [3] | Structure (SMILES) |
| --- | --- | --- | --- |
| 34.1 ± 5.4 nM | 270 ± 97.1 nM | – | CC(C)C[C@H](NC(=O)CNC(=O)c1cc(Cl)ccc1Cl)B(O)O [ixazomib] |
| 78.4 ± 17.3 nM | – | 372 ± 92.1 nM | CC(C)C[C@H](NC(=O)[C@H](CCc1ccccc1)NC(=O)CN1CCOCC1)C(=O)N[C@@H](Cc1ccccc1)C(=O)N[C@@H](CC(C)C)C(=O)[C@@]1(C)CO1 [carfilzomib] |
